Measured values taken from PMC8538004, “Identification of a Novel Neuropeptide S Receptor Antagonist Scaffold Based on the SHA-68 Core” (Pharmaceuticals, 2021).
Entries after “also recorded” stand apart in the source; their conditions may differ.

Columns and labels:
[1] = Glutathione incubation assay; assay type: physicochemical; conditions: 2 mM compound, 18 mM glutathione, MeCN/water, up to 48 h, LC/MS
Description: For the glutathione incubation assay, 20 mM stock solutions of compound 14b in MeCN (400 µL) and glutathione GSH in MeCN: Milli-Q H2O (10 mL, 1: 1, v/v) were prepared in separate scintillation vials. To prepare the incubation solution, 100 µL of 14b solution and 900 µL of GSH solution were taken in a clean HPLC vial. The final concentrations of 14b and GSH were 2 mM and 18 mM, respectively. In addition, a 2 mM reference solution of 14b was prepared by adding 100 µL of 14b stock solution to an HPLC vial containing 900 µL of MeCN: H2O (1:1), and an 18 mM reference solution of GSH was prepared by adding 900 µL of GSH stock solution to an HPLC vial containing 100 µL of MeCN.
Low-resolution mass spectra were obtained using an Agilent InfinityLab MSD single quadrupole mass spectrometer system (ESI). […] Chromatograms were detected using 254 and 280 nm wavelengths with 5 µL injections and data were processed using a general walkup method*.
*LC/MS Walkup Method: an Agilent InfinityLab MSD single quadrupole mass spectrometer equipped with an API-ES and an Agilent Infinity II 1260 HPLC equipped with an Agilent Infinity 1260 variable wavelength detector and a Phenomenex Synergi […] Hydro-RP 100A C18 30 × 2 mm column. […] MS Method: using atmospheric pressure ionization–electrospray, positive and negative ions were monitored in the range of 70–700 or 200–2000 (for compounds with a MW > 700).

[2] = test system: NPS-mediated hyperlocomotion; assay: NPS-stimulated locomotor activity (open field); assay type: in vivo, C57/Bl6 mice
Description: Male mice between 8 and 12 weeks of age were used for all tests. C57/Bl6 were obtained from the former NCI colony maintained by Charles River. Animals were housed with ad libitum access to food and water on a 12:12 h light:dark cycle with lights on at 06:00. Experiments were conducted between the hours of 09:00 and 15:00. All experiments were approved by the Institutional Animal Care and Use Committee of the State University of New York at Buffalo (PMY09073N) and conducted in accordance with the National Institutes of Health Guide for the Care and Use of Laboratory animals.
Mice were anesthetized using ketamine (100 mg/kg) and xylazine (5 mg/kg) and were secured to a stereotaxic frame once the appropriate plane of anesthesia was reached. An incision was made in order to expose the skull. […]
Open-field testing was conducted in clear plexiglass cages measuring 40 × 40 cm^2 interfaced by a grid array of infrared beams connected to a computer system which tracked and quantified the animals’ location and movements (OMNITECH Instruments, Columbus, OH, USA). […]
Statistical analyses were performed by ANOVA with Tukey’s multiple comparisons test analysis within GraphPad Prism 8 software (GraphPad Software, San Diego, CA, USA). All results are expressed as mean values ± SEM.

With `CC(C)CC1(c2ccccc2)OC(=O)C2=C1CN(C(=O)NCc1ccccc1)CC2` (single isomer, unassigned; (+)) [Compound 14b, (+) N-benzyl-3-(2-methylpropyl)-1-oxo-3-phenyl-1H,3H,4H,5H,6H,7H-furo[3,4-c]pyridine-5-carboxamide] the Glutathione adduct formation [1] was “No glutathione adduct was identified; also recorded: stable”, the “Effect on NPS-mediated hyperlocomotion” value ([2]; 3 mg/kg i.p. pretreatment, NPS 0.3 nmol ICV, total distance first 10 min, Veh-NPS vs. 14b-NPS p = 0.0389) was “attenuated; also recorded: able to block; also recorded: sufficient to significantly decrease; also recorded: significantly decreased” and the “Effect on locomotion on its own” value ([2]; 3 mg/kg i.p., aCSF ICV, Veh-aCSF vs. 14b-aCSF p = 0.8199) was “did not decrease locomotion”.
